Assay results reported in patent US12358901B2, “KV3 modulators” (priority 2018, dated 2025).
Where “and” joins values, the source holds several entries; their conditions need not be identical. Equal values may be shown once.

Columns and labels:
[1] = test system: Salmonella typhimurium (TA1535, TA1537, TA98 and TA100) and Escherichia coli WP2 uvrA (pKM101); assay: Ames testing (bacterial mutagenicity, with and without S9-mix); details: 5 to 5000 ug/plate, absence and presence of S9-mix
[2] = target: human Kv3.1 channels (hKv3.1) (Homo sapiens, UniProt P48547); assay: cell-based; assay type: cell-based; details: for Kv3.1 pEC50: HEK-hKv3.1 cells, -15 mV voltage step, normalised to 50 microM reference compound; for Kv3.1 max R %: maximum response relative to reference compound (50 microM)
Source text: The ability of the compounds of the invention to modulate the voltage-gated potassium channel subtypes Kv3.3/Kv3.2/Kv3.1 may be determined using the following assay. Analogous methods may be used to investigate the ability of the compounds of the invention to modulate other channel subtypes.
To assess compound effects on human Kv3.1 channels (hKv3.1):
Human embryonic kidney (HEK)-hKv3.1 cell line is generated by transfecting HEK-293 cells with an expression vector with human Kv3.1 (NM_004976.4). Cells are cultured with MEM supplemented with 10% Heat-Inactivated FBS, 2 mM L-glutamine, 1% Penicillin-Streptomycin, and 0.6 mg/ml of Geneticin (G418). HEK-hKv3.1b cells were amplified in T175 cm2 flask at 37° C. with 5% CO2, using MEM amplification medium, containing the G418 selection antibiotic (0.6 mg/ml). Cells were detached every 3-4 days, using DPBS to wash twice the flask, then TrypLE to dislodge the cells, and re-plated at a density of 2-4×10^6 cells/flask.
The day of the experiment, cells are removed from the incubator and the culture medium removed. Cells are washed with 5 ml of Dulbecco's PBS (DPBS) calcium and magnesium free and detached by the addition of 3 ml Versene (Invitrogen, Italy) followed by a brief incubation at 37° C. for 5 minutes. The flask is tapped to dislodge cells and 10 ml of DPBS containing calcium and magnesium is added to prepare a cell suspension. The cell suspension is then placed into a 15 ml centrifuge tube and centrifuged for 2 min at 1200 rpm. After centrifugation, the supernatant is removed and the cell pellet re-suspended in 4 ml of DPBS containing calcium and magnesium using a 5 ml pipette to break up the pellet. Cell suspension volume is then corrected to give a cell concentration for the assay of approximately 3 million cells per ml.
Experiments are conducted at r.t. using IonWorks Quattro™ planar array electrophysiology technology (Molecular Devices Corp.) with PatchPlate™ PPC. Stimulation protocols and data acquisition are carried out using a microcomputer (Dell Pentium 4). Planar electrode hole resistances (Rp) are determined by applying a 10 mV voltage step across each well. These measurements are performed before cell addition. After cell addition and seal formation, a seal test is performed by applying a voltage step from −80 mV to −70 mV for 160 ms. Following this, amphotericin-B solution is added to the intracellular face of the electrode to achieve intracellular access. Cells are held at −70 mV. Leak subtraction is conducted in all experiments by applying 50 ms hyperpolarizing (10 mV) prepulses to evoke leak currents followed by a 20 ms period at the holding potential before test pulses.
For hKv3.2 and hKv3.1, assays from the holding potential of −70 mV, a first test pulse at −15 mV was applied for 100 ms and after 100 ms at −70 mV a second pulse at +40 mV was applied for 50 ms. Cells were then maintained for 100 ms at −100 mV and another pulse from −70 mV to +40 mV (duration 50 ms) was applied to clamp later the voltage at −40 mV during 200 ms
The intracellular solution contains the following (in mM): K-gluconate 100, KCl 54, MgCl2 3.2, HEPES 5, adjusted to pH 7.3 with KOH. Amphotericin-B solution is prepared as 50 mg/ml stock solution in DMSO and diluted to a final working concentration of 0.1 mg/ml in intracellular solution. The external solution is Dulbecco's Phosphate Buffered Saline (DPBS) and contained the following (in mM): CaCl2 0.90, KCl 2.67, KH2PO4 1.47, MgCl·6H2O 0.493, NaCl 136.9, Na3PO4 8.06, with a pH of 7.4.
Compounds of use in the invention (or reference compounds such as N-cyclohexyl-N-[(7,8-dimethyl-2-oxo-1,2-dihydro-3-quinolinyl)methyl]-N-phenylurea) are dissolved in dimethylsulfoxide (DMSO) at a stock concentration of 10 mM. These solutions are further diluted with DMSO using a Biomek FX (Beckman Coulter) in a 384 compound plate. Each dilution (1 μL) is transferred to another compound plate and external solution containing 0.05% pluronic acid (66 μL) is added. […]

SMILES: CC[C@H]1NC(=O)N(c2cnc(Oc3ccc(C)c4c3C3(CC3)CO4)cn2)C1=O [Example 9, (5R)-5-ethyl-3-[5-(7-methylspiro[2H-benzofuran-3,1′-cyclopropane]-4-yl)oxypyrazin-2-yl]imidazolidine-2,4-dione]
- Ames Result (compound) [1]: Non- mutagenic
- Kv3.1 pEC50 [2]: 5.88 and 5.90
- Kv3.1 max R % [2]: 172% and 146%

SMILES: CC[C@H]1NC(=O)N(c2cnc(Oc3cccc4c3C3(CC3)CO4)cn2)C1=O [Example 10, (5R)-5-ethyl-3-(5-spiro[2H-benzofuran-3,1′-cyclopropane]-4-yloxypyrazin-2-yl)imidazolidine-2,4-dione]
- Ames Result (compound) [1]: Non- mutagenic
- Kv3.1 pEC50 [2]: 5.45 and 5.63
- Kv3.1 max R % [2]: 153% and 147%

SMILES: Cc1ccc(Oc2ncc(N3C(=O)NC(C)(C)C3=O)cn2)c2c1OCC21CC1 [RE5, reference compound]
- Ames Result (compound) [1]: Non- mutagenic
- Kv3.1 pEC50 [2]: 5.14
- Kv3.1 max R % [2]: 158%

SMILES: CC[C@H]1NC(=O)N(c2ccc(Oc3ccc(C)c4c3C3(CC3)CO4)nc2)C1=O [RE11, reference compound]
- Ames Result (compound) [1]: Non- mutagenic
- Kv3.1 pEC50 [2]: 6.1
- Kv3.1 max R % [2]: 152%

SMILES: CC[C@H]1NC(=O)N(c2ccc(Oc3cccc4c3C3(CC3)CO4)nc2)C1=O [RE13, (5R)-5-ethyl-3-(6-spiro[2H-benzofuran-3,1′-cyclopropane]-4-yloxy-3-pyridyl)imidazolidine-2,4-dione, reference compound]
- Kv3.1 pEC50 [2]: 6.1
- Kv3.1 max R % [2]: 149%
